Source: article PMC6382392 (Journal of medicinal chemistry, 2018)

Experiments:
[1] = tested on: RT16 CHO cells expressing human FRα
[2] = tested on: D4 CHO cells expressing human FRβ; details: for IC50: Homo sapiens, CHO, read-out: IC50 growth inhibition, FRβ, D4; for IC50 growth inhibition, FRβ, D4: without folic acid, mean (SE)
[3] = tested on: KB human tumor cells (RFC/FRα/PCFT); assay: Growth inhibition of KB human tumor cells, with and without 200 nM folic acid; details: without folic acid; mean (SE)
[4] = tested on: NCI-IGROV1 EOC xenografts; assay: In vivo efficacy trial, subcutaneous NCI-IGROV1 EOC xenografts in SCID mice; details: for Antitumor activity toward NCI-IGROV1 tumors in vivo (in words): SCID mice, folate-deficient diet
[5] = tested on: PC43–10 CHO cells expressing human RFC; assay: Growth inhibition; details: CHO subline expressing human RFC; drug up to 1000 nM, up to 96 h; mean (SE)
FRα = FRα (Homo sapiens, UniProt P15328); assay: Competitive [3H]folic acid binding to FRα in RT16 CHO cells; details: 50 nM [3H]folic acid, 15 min, 0 °C
FRβ = FRβ (Homo sapiens, UniProt P14207); assay: Competitive [3H]folic acid binding to FRβ in D4 CHO cells; details: 50 nM [3H]folic acid, 15 min, 0 °C
PCFT = target: T1, PCFT (Homo sapiens, UniProt Q96NT5); assay: Competitive inhibition of [3H]MTX uptake by PCFT in R2/PCFT4 cells; format: cell-based
T1 sequence (Q96NT5 1-459): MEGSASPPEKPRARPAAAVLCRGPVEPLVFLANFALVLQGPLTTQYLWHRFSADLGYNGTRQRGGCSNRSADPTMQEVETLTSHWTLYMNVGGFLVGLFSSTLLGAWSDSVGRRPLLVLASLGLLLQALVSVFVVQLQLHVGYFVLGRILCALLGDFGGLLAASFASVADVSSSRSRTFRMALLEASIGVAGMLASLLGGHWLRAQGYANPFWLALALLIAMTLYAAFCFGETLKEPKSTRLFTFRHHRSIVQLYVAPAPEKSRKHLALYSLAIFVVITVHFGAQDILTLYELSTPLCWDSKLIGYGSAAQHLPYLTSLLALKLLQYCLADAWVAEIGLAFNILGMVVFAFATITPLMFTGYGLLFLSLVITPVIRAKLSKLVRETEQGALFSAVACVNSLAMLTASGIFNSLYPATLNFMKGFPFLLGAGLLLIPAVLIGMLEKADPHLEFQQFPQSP

Chain of FRβ (P14207 17-255): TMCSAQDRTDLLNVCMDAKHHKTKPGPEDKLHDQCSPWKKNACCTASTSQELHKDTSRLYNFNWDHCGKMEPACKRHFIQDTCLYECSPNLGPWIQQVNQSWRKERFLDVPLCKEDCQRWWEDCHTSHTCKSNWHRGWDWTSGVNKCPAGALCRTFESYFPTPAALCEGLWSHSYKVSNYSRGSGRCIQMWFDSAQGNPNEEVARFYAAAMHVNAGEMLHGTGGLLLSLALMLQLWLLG
Chain of FRα (P15328 25-257): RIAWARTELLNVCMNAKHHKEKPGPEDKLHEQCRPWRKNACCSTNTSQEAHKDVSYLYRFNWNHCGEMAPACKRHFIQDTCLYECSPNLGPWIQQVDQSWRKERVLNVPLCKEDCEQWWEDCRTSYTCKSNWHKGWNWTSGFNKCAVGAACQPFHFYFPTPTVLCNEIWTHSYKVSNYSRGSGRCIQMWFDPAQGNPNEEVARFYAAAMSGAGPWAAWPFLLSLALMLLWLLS

Nc1nc2[nH]c(CCC#Cc3cccc(C(=O)N[C@@H](CCC(=O)O)C(=O)O)n3)cc2c(=O)[nH]1 [Compound 10, (6-(4-(2-Amino-4-oxo-4,7-dihydro-3H-pyrrolo[2,3-d]pyrimidin-6-yl)but-1-yn-1-yl)picolinoyl)-L-glutamic Acid]
IC50 ([1]; Homo sapiens, RT16, read-out: IC50 growth inhibition, FRα, RT16): > 1000 nM | IC50 growth inhibition, FRα, RT16 ([1]; without folic acid, mean (SE)): no activity | IC50 [2]: > 1000 nM | IC50 growth inhibition, FRβ, D4 [2]: inactive

Nc1nc2[nH]c(CCC#Cc3ccc(C(=O)N[C@@H](CCC(=O)O)C(=O)O)nc3)cc2c(=O)[nH]1 [Compound 9, (5-(4-(2-Amino-4-oxo-4,7-dihydro-3H-pyrrolo[2,3-d]pyrimidin-6-yl)but-1-yn-1-yl)picolinoyl)-L-glutamic Acid]
Fold less active than 6, FRα-expressing CHO cells [1]: ~ 4 fold | IC50 growth inhibition, RFC/FRα/PCFT, KB [3]: inactive

Nc1nc2[nH]c(CCCCc3ccc(C(=O)N[C@@H](CCC(=O)O)C(=O)O)nc3)cc2c(=O)[nH]1 [Compound 6, (5-(4-(2-Amino-4-oxo-4,7-dihydro-3H-pyrrolo[2,3-d]pyrimidin-6-yl)butyl)picolinoyl)-L-glutamic Acid]
Antitumor activity toward NCI-IGROV1 tumors in vivo (in words) [4]: excellent activity | Antitumor activity, standard (high folate) diet ([4]; mice on standard folate-replete diet): abolished | IC50 growth inhibition, RFC, PC43–10 [5]: no activity

Nc1nc2[nH]c(CCCCc3ccc(C(=O)N[C@@H](CCC(=O)O)C(=O)O)cc3)cc2c(=O)[nH]1 [Compound 1, reference compound]
IC50 growth inhibition, RFC, PC43–10 [5]: no activity

Nc1nc2[nH]c(CCCCc3cccc(C(=O)N[C@@H](CCC(=O)O)C(=O)O)n3)cc2c(=O)[nH]1 [Compound 7, (6-(4-(2-Amino-4-oxo-4,7-dihydro-3H-pyrrolo[2,3-d]pyrimidin-6-yl)butyl)picolinoyl)-L-glutamic Acid]
Relative binding affinity to FRα (vs folic acid) (FRα): sharply reduced | Relative binding affinity to FRβ (vs folic acid) (FRβ): sharply reduced | IC50 [2]: > 1000 nM | IC50 growth inhibition, FRβ, D4 [2]: inactive

CN(Cc1cnc2nc(N)nc(N)c2n1)c1ccc(C(=O)N[C@@H](CCCNC(=O)c2ccccc2C(=O)O)C(=O)O)cc1 [PT523, Nα-(4-amino-4-deoxypteroyl)-Nδ-hemiphthaloyl-L-ornithine]
Effect on [3H]MTX uptake by PCFT (PCFT; pH 5.5 and pH 6.8, 1 or 10 μM): no effect

Nc1nc2[nH]cc(CCc3ccc(C(=O)N[C@@H](CCC(=O)O)C(=O)O)cc3)c2c(=O)[nH]1 [PMX, N-{4-[2-(2-amino-3,4-dihydro-4-oxo-7H-pyrrolo-[2,3-d]pyrimidin-5-yl)ethyl]benzoyl}-L-glutamic acid, reference compound]
inhibition at 10 µM (PCFT; R2/PCFT4, pH 5.5, read-out: Inhibition of [3H]MTX transport by PCFT): ≥ 90% | Antitumor activity toward NCI-IGROV1 tumors in vivo (in words) [4]: inactive
